Assay results from patent US12083133B2, “Use of cholecalciferol as adjuvant in the treatment of muscular dystrophies” (ABIOGEN PHARMA SPA, priority 2021, dated 2024).
“Also recorded” adds a separate entry of the source.

Key:
[1] = test system: Duchenne dystrophy; conditions: state of the art; optimal dose 0.75 mg/kg per day; cited from earlier work
[2] = test system: muscular dystrophies; conditions: state of the art; cited from earlier work
[3] = test system: mdx mice; assay: Four limb hang test; assay type: in vivo, mouse
Source text: For the study, it was chosen as experimental model the mdx (Muscular Dystrophy X-linked) mouse, which has long been used to evaluate the efficacy of drugs against muscular dystrophy and other degenerative diseases that affect skeletal muscles, inducing functional loss. These mice represent the reference animal model for clinical projections, also because they made it possible to overcome the obstacle of the limited availability of human biopsy material for experimental purposes.
The model responds to both steroidal and non-steroidal anti-inflammatory and immunosuppressive treatments and it is also used to study the differential gene and protein expression induced by the various treatments. The test system altogether consisted in 50 C57BL/10ScSn-Dmdxdx/J male mice and 27 C57/BL male mice of about 4-5 weeks of age.
After a short pre-housing period (about 4 days after arrival in the animal enclosure), the animals were subjected to baseline behavioural analyses, as described hereafter. The start time of the analyses, after the pre-housing period, is defined zero time (t=0).
Mice were also subjected to physical exercise with a rotating treadmill (Ugo Basile, Milan) for 15 minutes twice a week at a speed of 12 m/min, to standardize the pathology.
This test was performed at the beginning and at the end of the trial (baseline and final). It is performed using a device that uses a steel grid to measure the mouse's ability to support itself on all four limbs, opposing the force of gravity. The animal is placed on the grid (40×40 cm, delimited by iron strips placed perpendicular to the grid and 5 cm high, with 1 cm squares formed by 1 mm diameter steel wire) which is inverted so that the animal finds itself upside down and hangs on with its paws, about 30 cm from the floor. […] The grid is kept in position for a maximum of 5 minutes and the time, in seconds, during which the animal is able to hang with its paws is recorded.
The results of test are shown in the following table 2 and are expressed in seconds and normalized for the animal's weight. Groups 1-8 reported herein are those described in table 1.

[4] = test system: muscle tissue of mdx mice; assay: Histopathologic analyses of muscle tissue (haematoxylin-eosin), graded 0 (absent) to 3 (very high); assay type: in vivo, mouse
Description: These analyses were performed on the material taken during necropsy performed after the sacrifice of the animals of groups 7 and 8. In particular, the quadriceps femoris, the diaphragm and the anterior tibial muscle were collected.
The samples taken and fixed were decalcified, embedded in paraffin according to the known technique, cut into 5-7 μm thick sections and stained with haematoxylin-eosin. The following forms of alteration were evaluated at the muscle tissue level, each of which was classified according to a grade from 0 (absent) to 3 (very high): • Atrophy • Degeneration • Inflammation • Oedema • Presence of adipose tissue • Hypertrophy • Regeneration • Mineralization Results

[5] = test system: Pax7; assay: Immunohistochemistry with anti-Pax7 antibody (satellite cells); assay type: in vivo, mouse
Description: (§1) Skeletal muscle growth and regeneration are attributable to satellite cells, which are stem cells resident in the basal lamina surrounding each myofiber. The expression of Pax7 (Paired-Box Transcription Factor 7) is constitutive, that is, this factor is expressed in these cells both in the quiescent and in the activation phase. When satellite cells are activated, they also co-express MyoD, which correlates with active muscle regeneration.
(§2) The expression of Pax7 was then analysed for the identification of satellite cells (progenitors) located under the basal lamina of myofibers, and of MyoD, expressed by myoblasts during proliferation.
(§3) Analyses were performed on the groups after 24 weeks of treatment.
(§4) Samples for immunohistochemistry were included in OCT, placed in isopentane, frozen with liquid nitrogen and kept at −80° C. Anti-Pax7 antibodies were used to label satellite cells and anti-MyoD for myoblasts.

[6] = test system: MyoD; assay: Immunohistochemistry with anti-MyoD antibody (proliferating myoblasts); assay type: in vivo, mouse; conditions: mdx mice, 24 weeks of treatment
Description: as §1, §2, §3, §4

[7] = test system: muscle fibres of mdx mice; assay: Fluorescence microscopy of muscle fibres (DAPI, anti-WGA); assay type: in vivo, mouse; conditions: 12 weeks of treatment, versus untreated control mdx mice
Source text: In fluorescence microscopy analyses DAPI staining (blue) was used for nuclei, while an anti-WGA antibody (WGA, or wheat germ agglutinin, Alexa Fluor® 594 conjugate), which stains cell membranes in red, was used to mark muscle fibres.

[8] = cited from earlier work
[9] = group 8, mdx mice, 175 μg/kg/day once a week, t = 24 weeks, grade 0 to 3

C[C@]12C=CC(=O)C=C1CC[C@@H]1[C@@H]2C(=O)C[C@@]2(C)[C@H]1CC[C@]2(O)C(=O)CO [prednisone]
Delay of the progression time of Duchenne dystrophy [1]: more than 3 years

C[C@]12CC[C@H]3[C@@H](CCC4=CC(=O)CC[C@@]43C)[C@@H]1CC[C@@H]2O [testosterone]
Efficacy as therapy of muscular dystrophies [2]: ineffective

vitamin E
Efficacy as therapy of muscular dystrophies [2]: ineffective

CC(C)(S)[C@@H](N)C(=O)O [penicillamine]
Efficacy as therapy of muscular dystrophies [2]: ineffective

C=C1CC[C@H](O)C/C1=C/C=C1\CCC[C@]2(C)[C@@H]([C@H](C)CCCC(C)C)CC[C@@H]12 [cholecalciferol]
Time in seconds (normalized for the animal's weight) t = 12 weeks ([3]; group 5, mdx mice, 175 μg/kg/day (7000 IU/day) per os once per week for 12 weeks): 0.8 s
Time in seconds (normalized for the animal's weight) t = 0 ([3]; group 5, mdx mice, baseline before treatment (12-week arm)): 0.9 s
Time in seconds (normalized for the animal's weight) t = 24 weeks ([3]; group 8, mdx mice, 175 μg/kg/day (7000 IU/day) per os once per week for 24 weeks): 0.9 s
Time in seconds (normalized for the animal's weight) t = 12 weeks ([3]; group 8, mdx mice, 175 μg/kg/day (7000 IU/day) per os once per week, 24-week arm): 1.2 s
Time in seconds (normalized for the animal's weight) t = 0 ([3]; group 8, mdx mice, baseline before treatment (24-week arm)): 1.7 s
Increase in resistance to detachment from the grid, in terms of time, versus untreated mdx animals ([3]; mdx mice, test at 24 weeks): 80%
Medium Grading: Atrophy ([4]; group 8, mdx mice, 175 μg/kg/day once a week, t = 24 weeks, grade 0 (absent) to 3 (very high)): 0.44
Medium Grading: Degeneration [4, 9]: 0
Medium Grading: Hypertrophy [4, 9]: 2.11
Medium Grading: Inflammation [4, 9]: 0
Medium Grading: Mineralization [4, 9]: 0.33
Medium Grading: Oedema [4, 9]: 0.44
Medium Grading: Presence of adipose tissue [4, 9]: 0.11
Medium Grading: Regeneration [4, 9]: 2.66
Microscopic examination of muscle tissue stained with haematoxylin-eosin (in words) ([4]; mdx mice treated for 24 weeks): areas of regeneration and hypertrophy, and only in few cases muscular atrophy, moreover at low levels
Positivity of muscle tissue for anti-Pax7 antibody (marker of satellite cells) ([5]; mdx mice treated with cholecalciferol): highly positive
Labelling with anti-Pax7 antibody (satellite cells) ([5]; mdx mice, 24 weeks of treatment, versus vehicle-treated mdx mice): clearly present and localized on the contours of the muscle fibres; also recorded: more evident
Labelling with anti-MyoD antibody / expression of MyoD [6]: appears extensive; also recorded: restored the expression of MyoD to levels similar to those of wild-type mice
Structure of muscle fibres and position of cell nuclei [7]: cell nuclei distributed both centrally and peripherally and less disrupted muscle fibres; also recorded: visibly less disrupted
Blood half-life (T1/2) ([8]; estimated): 19 to 25 h
Functional half-life ([8]; related to slow release from adipose tissue): several weeks
